ChEMBL document CHEMBL5154925, “Design and Optimization of Thienopyrimidine Derivatives as Potent and Selective PI3Kδ Inhibitors for the Treatment of B-Cell Malignancies” (J Med Chem, 2022)
pIC50: −log10 of the molar value. Converted amounts (≈) assume the structure as drawn. The source made the active and inactive calls. No cut-off for these calls is given here.

Assays:
[1] = system: Mus musculus; experiment: In vivo inhibition of PI3K signalling in human Pfeiffer cells xenografted in nude mouse assessed as reduction in Akt phosphorylation at Ser473 at 5 mg/kg, ip by Western blotting analysis; assay type: functional, organism-based
[2] = system: Pfeiffer; experiment: Induction of apoptosis in human Pfeiffer cells assessed as necrotic cells at 50 uM incubated for 48 hrs by annexin V-FITC staining based flow cytometry (reference value: 6.62 %); assay type: functional
[3] = system: Pfeiffer; experiment: Induction of apoptosis in human Pfeiffer cells assessed as necrotic cells at 2 uM incubated for 48 hrs by annexin V-FITC staining based flow cytometry (reference value: 6.62 %); assay type: functional
[4] = molecular target: Phosphatidylinositol 4,5-bisphosphate 3-kinase catalytic subunit beta isoform (Homo sapiens, UniProt P42338); experiment: Inhibition of PI3Kbeta in LPA stimulated human PC-3 cells incubated for 10 mins by AlphaLISA assay; assay type: cell-based
Chain of Phosphatidylinositol 4,5-bisphosphate 3-kinase catalytic subunit beta isoform (P42338 whole entry, canonical isoform): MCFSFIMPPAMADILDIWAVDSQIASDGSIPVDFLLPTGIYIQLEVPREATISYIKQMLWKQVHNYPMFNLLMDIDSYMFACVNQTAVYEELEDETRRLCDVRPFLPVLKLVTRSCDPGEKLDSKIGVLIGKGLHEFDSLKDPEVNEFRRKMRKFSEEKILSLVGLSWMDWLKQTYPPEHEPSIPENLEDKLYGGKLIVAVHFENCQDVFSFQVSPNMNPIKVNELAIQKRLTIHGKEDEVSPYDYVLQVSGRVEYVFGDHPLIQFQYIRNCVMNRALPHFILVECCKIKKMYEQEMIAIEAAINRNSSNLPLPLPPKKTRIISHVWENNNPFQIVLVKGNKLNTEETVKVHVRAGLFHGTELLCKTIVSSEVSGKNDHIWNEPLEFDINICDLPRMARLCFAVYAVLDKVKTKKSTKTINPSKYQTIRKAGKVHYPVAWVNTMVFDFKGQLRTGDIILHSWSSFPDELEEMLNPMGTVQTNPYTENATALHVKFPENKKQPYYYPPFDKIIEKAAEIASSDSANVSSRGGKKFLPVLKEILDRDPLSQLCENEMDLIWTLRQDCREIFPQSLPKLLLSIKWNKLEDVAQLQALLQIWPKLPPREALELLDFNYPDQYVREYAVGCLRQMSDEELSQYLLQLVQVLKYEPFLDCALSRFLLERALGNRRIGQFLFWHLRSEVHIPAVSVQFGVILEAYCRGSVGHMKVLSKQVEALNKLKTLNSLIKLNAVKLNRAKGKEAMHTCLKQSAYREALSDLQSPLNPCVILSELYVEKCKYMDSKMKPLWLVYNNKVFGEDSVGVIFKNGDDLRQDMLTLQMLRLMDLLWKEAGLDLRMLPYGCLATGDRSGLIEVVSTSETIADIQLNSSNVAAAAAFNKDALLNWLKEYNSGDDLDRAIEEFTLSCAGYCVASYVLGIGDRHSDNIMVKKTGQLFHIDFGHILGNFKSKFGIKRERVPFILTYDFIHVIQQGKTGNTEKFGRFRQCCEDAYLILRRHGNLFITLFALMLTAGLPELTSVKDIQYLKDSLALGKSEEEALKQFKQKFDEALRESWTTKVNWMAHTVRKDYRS

[5] = system: Pfeiffer; experiment: Induction of apoptosis in human Pfeiffer cells assessed as viable […] cells at 10 uM incubated for 48 hrs by annexin V-FITC staining based flow cytometry (reference value: 81.14 %); assay type: functional
[6] = molecular target: Ribosomal protein S6 kinase alpha-3 (Homo sapiens) (UniProt P51812); experiment: Inhibition of wild type […] human RSK2 (M1 to D394 residues) expressed in mammalian expression system assessed as residual activity at 10 uM relative to control
Chain of Ribosomal protein S6 kinase alpha-3 (Homo sapiens) (P51812 whole entry, the tested form may be a part): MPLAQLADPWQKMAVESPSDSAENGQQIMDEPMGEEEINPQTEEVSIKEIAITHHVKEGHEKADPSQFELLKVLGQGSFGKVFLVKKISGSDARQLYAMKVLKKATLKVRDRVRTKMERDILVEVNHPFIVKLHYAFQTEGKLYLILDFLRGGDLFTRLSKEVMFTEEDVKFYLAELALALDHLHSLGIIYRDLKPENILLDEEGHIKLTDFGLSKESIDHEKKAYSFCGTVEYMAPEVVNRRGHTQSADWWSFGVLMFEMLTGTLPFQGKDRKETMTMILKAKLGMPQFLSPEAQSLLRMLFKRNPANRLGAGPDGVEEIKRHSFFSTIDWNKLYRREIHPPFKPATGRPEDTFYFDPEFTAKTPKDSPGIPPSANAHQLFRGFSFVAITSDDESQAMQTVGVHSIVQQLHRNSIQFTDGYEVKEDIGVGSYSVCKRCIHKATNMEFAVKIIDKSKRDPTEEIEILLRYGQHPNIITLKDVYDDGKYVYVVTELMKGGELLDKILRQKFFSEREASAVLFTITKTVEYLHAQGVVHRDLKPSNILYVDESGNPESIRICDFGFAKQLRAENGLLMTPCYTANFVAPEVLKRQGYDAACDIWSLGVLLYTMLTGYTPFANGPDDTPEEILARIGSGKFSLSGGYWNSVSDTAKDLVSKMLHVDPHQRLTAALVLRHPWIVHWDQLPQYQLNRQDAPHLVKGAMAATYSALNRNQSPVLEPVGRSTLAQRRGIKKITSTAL

[7] = Solubility of the compound in PBS; assay type: physicochemical
[8] = system: Pfeiffer; experiment: Induction of apoptosis in human Pfeiffer cells assessed as late apoptotic cells at 10 uM incubated for 48 hrs by annexin V-FITC staining based flow cytometry (reference value: 7.87 %); assay type: functional
[9] = system: Pfeiffer; experiment: Induction of apoptosis in human Pfeiffer cells assessed as early apoptotic cells at 2 uM incubated for 48 hrs by annexin V-FITC staining based flow cytometry (reference value: 4.16 %); assay type: functional
[10] = Cmax in ICR mouse at 3 mg/kg, iv measured upto 24 hrs by LC-MS/MS analysis; assay type: ADME, organism-based; set-up: time < 24 hrs, dose 3 mg/kg, route iv; conditions: in vivo
[11] = Microsomal stability in mouse liver microsomes assessed as half life; assay type: ADME, Microsome
[12] = system: SU-DHL-6; experiment: Inhibition of P13K signaling pathway in human SU-DHL-6 cells assessed as reduction in AKT phosphorylation at S473 residue incubated for 4 hrs by Western blot analysis; assay type: cell-based; conditions: dose 2-50 µM, DDE = dose-dependent effect
[13] = system: SU-DHL-6; experiment: Induction of cell cycle arrest in human SU-DHL-6 cells assessed as accumulation at G0/G1 phase at 2 to 50 uM after 24 hrs by propidium iodide and RNAase staining based flow cytometric analysis; assay type: functional; conditions: dose 2-50 µM
[14] = system: Rec1; experiment: Antiproliferative activity against human REC1 cells assessed as cell growth inhibition incubated for 96 hrs by cell titer glo assay; assay type: functional, cell-based; conditions: Rec1, 96 h
[15] = system: Z-138; experiment: Antiproliferative activity against human Z138 cells assessed as cell growth inhibition incubated for 96 hrs by cell titer glo assay; assay type: functional, cell-based; conditions: Z-138, 96 h
[16] = system: Pfeiffer; experiment: Antitumor activity against human Pfeiffer cells xenografted in nude mouse assessed as tumor growth inhibition at 75 mg/kg, po BID for 21 days and measured twice weekly; assay type: functional; conditions: 504 h, time 21 day, read-out: TGI
[17] = molecular target: Phosphatidylinositol 4,5-bisphosphate 3-kinase catalytic subunit gamma isoform (Homo sapiens, UniProt P48736); experiment: Inhibition of wild type partial length human PIK3CG (S144 to A1102 residues) expressed in mammalian cells assessed as residual activity at 10 uM relative to control; assay type: cell-based
Chain of Phosphatidylinositol 4,5-bisphosphate 3-kinase catalytic subunit gamma isoform (P48736 whole entry, looked up, the tested form may be a part, canonical isoform): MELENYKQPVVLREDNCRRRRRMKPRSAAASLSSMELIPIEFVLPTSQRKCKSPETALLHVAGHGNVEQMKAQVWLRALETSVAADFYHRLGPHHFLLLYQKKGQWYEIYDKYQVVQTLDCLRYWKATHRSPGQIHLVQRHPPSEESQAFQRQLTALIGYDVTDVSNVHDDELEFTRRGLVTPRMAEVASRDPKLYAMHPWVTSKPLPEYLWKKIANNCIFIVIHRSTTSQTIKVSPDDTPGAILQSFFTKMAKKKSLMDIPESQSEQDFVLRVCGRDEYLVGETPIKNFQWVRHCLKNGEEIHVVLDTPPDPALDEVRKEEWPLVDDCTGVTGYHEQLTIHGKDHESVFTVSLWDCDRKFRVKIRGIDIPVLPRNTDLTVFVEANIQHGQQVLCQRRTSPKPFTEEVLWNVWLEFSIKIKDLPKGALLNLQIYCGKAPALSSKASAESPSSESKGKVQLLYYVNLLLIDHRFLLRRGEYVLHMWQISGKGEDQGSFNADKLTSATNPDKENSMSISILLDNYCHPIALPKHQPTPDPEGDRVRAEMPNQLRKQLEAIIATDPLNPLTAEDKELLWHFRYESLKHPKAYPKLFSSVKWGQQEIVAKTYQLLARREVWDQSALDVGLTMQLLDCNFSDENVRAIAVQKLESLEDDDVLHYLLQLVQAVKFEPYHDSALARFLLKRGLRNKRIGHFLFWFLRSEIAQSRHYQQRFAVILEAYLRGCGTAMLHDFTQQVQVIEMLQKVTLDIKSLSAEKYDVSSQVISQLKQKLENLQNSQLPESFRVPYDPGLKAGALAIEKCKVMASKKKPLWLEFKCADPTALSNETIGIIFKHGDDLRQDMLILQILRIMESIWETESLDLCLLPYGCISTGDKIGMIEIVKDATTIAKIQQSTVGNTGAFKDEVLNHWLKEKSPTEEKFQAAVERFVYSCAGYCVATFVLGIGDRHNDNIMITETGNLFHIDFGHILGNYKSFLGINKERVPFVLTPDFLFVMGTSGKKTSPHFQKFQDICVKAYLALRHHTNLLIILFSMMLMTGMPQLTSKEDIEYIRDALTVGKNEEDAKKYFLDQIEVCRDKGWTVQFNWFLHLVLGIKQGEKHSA

[18] = system: Pfeiffer; experiment: Induction of apoptosis in human Pfeiffer cells assessed as necrotic cells at 10 uM incubated for 48 hrs by annexin V-FITC staining based flow cytometry (reference value: 6.62 %); assay type: functional
[19] = system: B-cell; experiment: Inhibition of PI3Kdelta dependent mouse B-cell activation assessed as reduction in ratio of CD86 and B220 level at 0.001 to 0.1 uM stimulated with IgM for 1 hr prior to compound addition and measured after 24 hrs by flow cytometry analysis; assay type: functional, cell-based; conditions: dose 0.001-0.1 µM, time 25.0 hrs
[20] = Half life in ICR mouse at 30 mg/kg, po measured upto 24 hrs by LC-MS/MS analysis; assay type: ADME, organism-based; conditions: in vivo
[21] = system: SU-DHL-6; experiment: Induction of apoptosis in human SU-DHL-6 cells assessed as apoptotic rate at 50 uM incubated for 48 hrs by annexin V-FITC staining based flow cytometry; assay type: functional
[22] = system: SU-DHL-6; experiment: Inhibition of P13K signaling pathway in human SU-DHL-6 cells assessed as reduction in […] incubated for 4 hrs by Western blot analysis; assay type: cell-based; conditions: dose 2-50 µM, DDE = dose-dependent effect
[23] = Microsomal stability in mouse liver microsomes assessed as intrinsic clearance; assay type: ADME, Microsome; conditions: read-out: CLH
[24] = AUC (0 to infinity) in ICR mouse at 30 mg/kg, po measured upto 24 hrs by LC-MS/MS analysis; assay type: ADME, organism-based; set-up: dose 30 mg/kg, time < 24 hrs, route po; conditions: in vivo
[25] = Solubility of the compound in FaSSIF; assay type: physicochemical
[26] = system: SUD4; experiment: Antiproliferative activity against human SU-DHL-4 cells assessed as cell growth inhibition incubated for 96 hrs by cell titer glo assay; assay type: functional, cell-based; conditions: SU-DHL-4, 96 h
[27] = system: Pfeiffer; experiment: Inhibition of P13K signaling pathway in human Pfeiffer cells assessed as reduction in […] incubated for 4 hrs by Western blot analysis; assay type: cell-based; conditions: dose 2-50 µM, DDE = dose-dependent effect
[28] = Clearance in ICR mouse at 3 mg/kg, iv measured upto 24 hrs by LC-MS/MS analysis; assay type: ADME, organism-based; conditions: in vivo
[29] = system: Pfeiffer; experiment: Induction of apoptosis in human Pfeiffer cells assessed as early apoptotic cells at 10 uM incubated for 48 hrs by annexin V-FITC staining based flow cytometry (reference value: 4.16 %); assay type: functional
[30] = Cmax in ICR mouse at 30 mg/kg, po measured upto 24 hrs by LC-MS/MS analysis; assay type: ADME, organism-based; set-up: time < 24 hrs, dose 30 mg/kg, route po; conditions: in vivo
[31] = system: Pfeiffer; experiment: Antitumour activity against human Pfeiffer cells xenografted in nude mouse assessed as reduction in Ki67 expression in tumor at 5 mg/kg, ip BID for 21 days by immunohistochemical analysis; assay type: functional, organism-based; conditions: time 21.0 day
[32] = AUC (0 to infinity) in ICR mouse at 3 mg/kg, iv measured upto 24 hrs by LC-MS/MS analysis; assay type: ADME, organism-based; set-up: time < 24 hrs, dose 3 mg/kg, route iv; conditions: in vivo
[33] = system: Pfeiffer; experiment: Inhibition of P13K signaling pathway in human Pfeiffer cells assessed as reduction in AKT phosphorylation at S473 residue incubated for 4 hrs by Western blot analysis; assay type: cell-based; conditions: dose 2-50 µM, DDE = dose-dependent effect
[34] = Apparent volume of distribution in ICR mouse at 3 mg/kg, iv measured upto 24 hrs by LC-MS/MS analysis; assay type: ADME, organism-based; conditions: in vivo, read-out: Vz
[35] = molecular target: Phosphatidylinositol 4,5-bisphosphate 3-kinase catalytic subunit alpha isoform (Homo sapiens, UniProt P42336); experiment: Inhibition of PI3Kalpha (unknown origin) using PIP2 as substrate measured after 1 hr in presence of ATP by ADP-glo luminescence assay
Chain of Phosphatidylinositol 4,5-bisphosphate 3-kinase catalytic subunit alpha isoform (P42336 whole entry, canonical isoform): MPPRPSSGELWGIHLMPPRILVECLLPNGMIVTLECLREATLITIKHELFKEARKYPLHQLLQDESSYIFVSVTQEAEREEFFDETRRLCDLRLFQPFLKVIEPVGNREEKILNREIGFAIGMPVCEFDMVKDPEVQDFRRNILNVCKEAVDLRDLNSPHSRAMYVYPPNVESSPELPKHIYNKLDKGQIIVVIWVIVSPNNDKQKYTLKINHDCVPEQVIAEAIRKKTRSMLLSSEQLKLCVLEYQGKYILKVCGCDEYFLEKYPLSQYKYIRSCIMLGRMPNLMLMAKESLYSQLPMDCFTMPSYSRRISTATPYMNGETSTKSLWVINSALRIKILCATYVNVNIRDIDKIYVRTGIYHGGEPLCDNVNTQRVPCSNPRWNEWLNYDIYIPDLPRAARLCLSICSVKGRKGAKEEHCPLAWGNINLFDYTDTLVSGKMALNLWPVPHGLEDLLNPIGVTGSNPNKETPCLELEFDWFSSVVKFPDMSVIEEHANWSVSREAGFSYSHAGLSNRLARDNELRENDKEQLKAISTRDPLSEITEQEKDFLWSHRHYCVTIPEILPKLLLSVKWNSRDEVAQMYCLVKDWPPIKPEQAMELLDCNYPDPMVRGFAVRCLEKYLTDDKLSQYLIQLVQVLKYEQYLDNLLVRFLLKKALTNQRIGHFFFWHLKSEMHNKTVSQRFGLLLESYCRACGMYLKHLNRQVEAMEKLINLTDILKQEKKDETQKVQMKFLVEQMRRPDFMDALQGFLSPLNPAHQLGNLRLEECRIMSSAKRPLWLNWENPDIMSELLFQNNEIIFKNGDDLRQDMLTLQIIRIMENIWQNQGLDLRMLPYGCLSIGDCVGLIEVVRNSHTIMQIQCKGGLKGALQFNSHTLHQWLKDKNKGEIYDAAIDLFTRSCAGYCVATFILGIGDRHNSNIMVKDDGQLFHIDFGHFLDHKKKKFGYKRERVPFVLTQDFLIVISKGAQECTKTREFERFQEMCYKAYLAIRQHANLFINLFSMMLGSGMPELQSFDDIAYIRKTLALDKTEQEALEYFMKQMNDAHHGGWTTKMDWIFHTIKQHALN

[36] = Tmax in ICR mouse at 30 mg/kg, po measured upto 24 hrs by LC-MS/MS analysis; assay type: ADME, organism-based; conditions: in vivo
[37] = AUC (0 to t) in ICR mouse at 30 mg/kg, po measured upto 24 hrs by LC-MS/MS analysis; assay type: ADME, organism-based; set-up: time < 24 hrs, dose 30 mg/kg, route po; conditions: in vivo
[38] = system: Pfeiffer; experiment: Induction of cell cycle arrest in human Pfeiffer cells assessed as accumulation at G0/G1 phase at 2 to 50 uM after 24 hrs by propidium iodide and RNAase staining based flow cytometric analysis; assay type: functional; conditions: dose 2-50 µM
[39] = system: Pfeiffer; experiment: Antiproliferative activity against human Pfeiffer cells assessed as cell growth inhibition incubated for 96 hrs by cell titer glo assay; assay type: functional, cell-based

pIC50 [4]: 5.29 | Activity [6]: 23% | solubility [7]: 44.5 µM (≈ 18.4 µg/mL) | Cmax [10]: 3190 ng/mL | half-life [11]: 1.51 h | Activity [17]: 9.9% | half-life [20]: 0.89 h | CLint scaled [23]: 60.3 mL/min/kg | AUC(0-inf) [24]: 1030 ng·h/mL | solubility [25]: 102 µM (≈ 42.1 µg/mL) | clearance [28]: 36.5 mL/min/kg | Cmax [30]: 372 ng/mL | AUC(0-inf) [32]: 1370 ng·h/mL | Vd [34]: 5.49 L/kg | pIC50 [35]: 6.51 | Tmax [36]: 1.5 h | AUC(0-t) at 24 h [37]: 1030 ng·h/mL
SMILES: CCC(=O)N1CC[C@H](Nc2ncnc3sc(-c4cnc(OC)c(OC)c4)cc23)C1
inhibition [1]: Active | Activity [2]: 7.18% | Activity [3]: 5.01% | Activity [5]: 65.34% | Activity [8]: 22.9% | Activity [9]: 6.03% | inhibition [12]: Dde | Activity [13]: Active | pIC50 [14]: 5.92 | pIC50 [15]: 5.15 | inhibition in vivo at 75 mg/kg [16]: 65.5% | Activity [18]: 6.72% | inhibition [19]: Active | Activity [21]: >50% | inhibition [22]: Dde | pIC50 [26]: 5.43 | inhibition [27]: Dde | Activity [29]: 6.98% | Activity [31]: Active | inhibition [33]: Dde | Activity [38]: Active | pIC50 [39]: 6.24
